Columns and labels:
[1] = target: T1, Human PDGFRα, cytoplasmic domain (GST-PDGFRα) (Homo sapiens, UniProt P16234); assay: Human PDGFRα biochemical inhibition assay (off-chip Mobility Shift Assay)
T1 construct: made in house

[2] = target: T2, Human PDGFRβ, cytoplasmic domain (GST-PDGFRβ) (Homo sapiens, UniProt P09619); assay: Human PDGFRβ biochemical inhibition assay (off-chip Mobility Shift Assay)
T2 construct: made in house
Outline: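 GST-tagged cytoplasmic domain (aa 557-1106) from baculovirus was incubated 1 h at room temperature with compound, CSKtide, ATP at Km and Mg²⁺ in HEPES buffer, pH 7.5. Phosphorylated and unphosphorylated peptide were separated by off-chip mobility shift, and the product ratio P/(P+S) gave percent inhibition.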

T2 sequence (P09619 with tags, fused parts or gaps): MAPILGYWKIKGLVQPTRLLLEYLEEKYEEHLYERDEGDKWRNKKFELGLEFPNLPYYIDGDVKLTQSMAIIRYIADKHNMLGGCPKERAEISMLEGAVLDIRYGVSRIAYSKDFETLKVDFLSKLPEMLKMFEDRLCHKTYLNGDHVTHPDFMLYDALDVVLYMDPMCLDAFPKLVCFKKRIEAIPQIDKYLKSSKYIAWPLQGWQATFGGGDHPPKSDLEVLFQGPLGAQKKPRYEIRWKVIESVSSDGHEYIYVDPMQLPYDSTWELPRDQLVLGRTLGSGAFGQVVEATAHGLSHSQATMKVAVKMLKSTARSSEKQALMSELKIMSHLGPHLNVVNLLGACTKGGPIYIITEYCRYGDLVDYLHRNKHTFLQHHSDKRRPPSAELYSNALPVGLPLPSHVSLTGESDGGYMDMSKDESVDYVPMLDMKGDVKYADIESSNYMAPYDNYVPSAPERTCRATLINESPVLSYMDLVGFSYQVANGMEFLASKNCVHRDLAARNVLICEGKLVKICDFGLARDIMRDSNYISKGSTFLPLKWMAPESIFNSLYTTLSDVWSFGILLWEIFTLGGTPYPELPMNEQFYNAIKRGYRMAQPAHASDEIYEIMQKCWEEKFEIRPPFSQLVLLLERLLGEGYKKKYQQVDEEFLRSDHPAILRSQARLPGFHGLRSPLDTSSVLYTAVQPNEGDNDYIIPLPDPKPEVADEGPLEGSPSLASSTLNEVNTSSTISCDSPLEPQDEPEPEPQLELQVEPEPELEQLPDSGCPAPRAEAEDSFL
T1 sequence (P16234 550-1089 T674I): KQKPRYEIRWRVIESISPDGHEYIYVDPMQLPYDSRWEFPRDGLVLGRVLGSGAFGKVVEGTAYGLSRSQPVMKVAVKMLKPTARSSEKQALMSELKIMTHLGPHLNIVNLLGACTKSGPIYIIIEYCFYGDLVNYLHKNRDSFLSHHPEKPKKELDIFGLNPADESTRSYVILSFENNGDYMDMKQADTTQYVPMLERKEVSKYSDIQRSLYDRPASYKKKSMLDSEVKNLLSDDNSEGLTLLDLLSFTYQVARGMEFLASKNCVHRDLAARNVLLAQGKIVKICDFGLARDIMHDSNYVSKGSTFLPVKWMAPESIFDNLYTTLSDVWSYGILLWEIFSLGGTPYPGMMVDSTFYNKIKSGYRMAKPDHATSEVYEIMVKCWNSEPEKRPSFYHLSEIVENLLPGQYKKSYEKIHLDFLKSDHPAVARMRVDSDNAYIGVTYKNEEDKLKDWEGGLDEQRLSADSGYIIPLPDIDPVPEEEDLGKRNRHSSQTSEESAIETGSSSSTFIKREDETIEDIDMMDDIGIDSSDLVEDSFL

| IC50 [1] [nM] | IC50 [2] [nM] | SMILES |
| --- | --- | --- |
| < 300 | < 300 | CC(C)n1cc(C(=O)Nc2cccc([C@H](C)Nc3cnc4cnn(C)c4n3)c2)cn1 [Compound 147, (S)-1-isopropyl-N-(3-(1-((1-methyl-1H-pyrazolo[3,4-b]pyrazin-6-yl)amino)ethyl)phenyl)-1H-pyrazole-4-carboxamide] |
| < 300 | 300 to 1000 | CCn1cc2ncc(N[C@@H](C)c3cccc(NC(=O)Nc4cnn(C(C)C)c4)c3)nc2n1 [Compound 733, (S)-1-(3-(1-((2-ethyl-2H-pyrazolo[3,4-b]pyrazin-6-yl)amino)ethyl)phenyl)-3-(1-isopropyl-1H-pyrazol-4-yl)urea] |
| < 300 | < 300 | Cc1cncc(C(=O)Nc2cccc([C@H](C)Nc3cnc4[nH]c(-c5cnn(C)c5)nc4n3)c2)c1 [Compound 603, (S)-5-methyl-N-(3-(1-((2-(1-methyl-1H-pyrazol-4-yl)-1H-imidazo[4,5-b]pyrazin-5-yl)amino)ethyl)phenyl) nicotinamide] |
| < 300 | < 300 | CCn1cc2ncc(N[C@@H](C)c3cccc(NC(=O)c4ccc(CN5CC6CC6C5)c(C)c4)c3)nc2n1 (stereo partly drawn) [Compound 477, 4-((3-azabicyclo[3.1.0]hexan-3-yl)methyl)-N-(3-((5)-1-((2-ethyl-2H-pyrazolo[3,4-b]pyrazin-6-yl)amino)ethyl)phenyl)-3-methylbenzamide] |
| < 300 | < 300 | C[C@H](Nc1cnc2cnn(C)c2n1)c1cccc(NC(=O)c2cnc3c(c2)CCCO3)c1 [Compound 70, (S)-N-(3-(1-((1-methyl-1H-pyrazolo[3,4-b]pyrazin-6-yl)amino)ethyl)phenyl)-3,4-dihydro-2H-pyrano[2,3-b] pyridine-6-carboxamide] |
| < 300 | < 300 | CCn1cc2ncc(N[C@@H](C)c3cc(NC(=O)c4ccc(OC5CCN(C)CC5)c(Cl)c4)ccc3F)nc2n1 [Compound 430, (S)-3-chloro-N-(3-(1-((2-ethyl-2H-pyrazolo[3,4-b]pyrazin-6-yl)amino)ethyl)-4-fluorophenyl)-4-((1-methylpiperidin-4-yl)oxy)benzamide] |
| < 300 | < 300 | CC(C)Cn1ccc(C(=O)Nc2cccc([C@H](C)Nc3cnc4cnn(C)c4n3)c2)n1 [Compound 157, (S)-1-isobutyl-N-(3-(1-((1-methyl-1H-pyrazolo[3,4-b]pyrazin-6-yl)amino)ethyl)phenyl)-1H-pyrazole-3-carboxamide] |
| < 300 | ≥ 1000 | CCn1cc2ncc(N[C@@H](C)c3cccc(NC(=O)Cc4ccc(C)c(C)n4)c3)nc2n1 [Compound 716, (S)-2-(5,6-dimethylpyridin-2-yl)-N-(3-(1-((2-ethyl-2H-pyrazolo[3,4-b]pyrazin-6-yl)amino)ethyl)phenyl)acetamide] |

The next lines start with the compound.

| SMILES | IC50 [1] [nM] | IC50 [2] [nM] |
| --- | --- | --- |
| CCn1cc2ncc(N[C@@H](C)c3cccc(NC(=O)c4ccc(N5CCN(C)CC5)c(F)c4)c3)nc2n1 [Compound 367, (S)-N-(3-(1-((2-ethyl-2H-pyrazolo[3,4-b]pyrazin-6-yl)amino)ethyl)phenyl)-3-fluoro-4-(4-methylpiperazin-1-yl) benzamide] | 300 to 1000 | ≥ 1000 |
| CC(=O)Oc1ccc(C(=O)Nc2cccc([C@H](C)Nc3cnc4cnn(C)c4n3)c2)cc1 [Compound 214, (S)-4-((3-(1-((1-methyl-1H-pyrazolo[3,4-b]pyrazin-6-yl)amino)ethyl)phenyl)carbamoyl) phenyl acetate] | < 300 | < 300 |
| CCn1cc2ncc(N[C@@H](C)c3cccc(NC(=O)c4cnc(COC)s4)c3)nc2n1 [Compound 338, (S)-N-(3-(1-((2-ethyl-2H-pyrazolo[3,4-b]pyrazin-6-yl)amino)ethyl)phenyl)-2-(methoxymethyl)thiazole-5-carboxamide] | < 300 | 300 to 1000 |
| CC(C)c1cc(C(=O)Nc2cccc([C@H](C)Nc3cnc4cnn(C)c4n3)c2)on1 [Compound 145, (S)-3-isopropyl-N-(3-(1-((1-methyl-1H-pyrazolo[3,4-b]pyrazin-6-yl)amino)ethyl)phenyl)isoxazole-5-carboxamide] | < 300 | < 300 |
| CCn1cc2ncc(N[C@@H](C)c3cccc(NC(=O)c4ccc(CN5CCN(C)CC5)c(C(F)(F)F)c4)c3)nc2n1 [Compound 423, (S)-N-(3-(1-((2-ethyl-2H-pyrazolo[3,4-b]pyrazin-6-yl)amino)ethyl)phenyl)-4-((4-methylpiperazin-1-yl)methyl)-3-(trifluoromethyl)benzamide] | < 300 | < 300 |
| C[C@H](Nc1cnc2[nH]ccc2n1)c1cccc(NC(=O)c2cnn(C3CCC3)c2)c1 [Compound 598, (S)-N-(3-(1-((5H-pyrrolo[2,3-b]pyrazin-2-yl)amino)ethyl)phenyl)-1-cyclobutyl-1H-pyrazole-4-carboxamide] | < 300 | < 300 |
| CCn1cc2ncc(N[C@@H](C)c3cccc(NC(=O)c4cnc(N(C)C)s4)c3)nc2n1 [Compound 340, (S)-2-(dimethylamino)-N-(3-(1-((2-ethyl-2H-pyrazolo[3,4-b]pyrazin-6-yl)amino)ethyl)phenyl)thiazole-5-carboxamide] | < 300 | < 300 |
| CCn1cc2ncc(N[C@@H](C)c3cccc(NC(=O)c4ccc(CN5CCOCC5)cc4)c3)nc2n1 [Compound 374, (S)-N-(3-(1-((2-ethyl-2H-pyrazolo[3,4-b]pyrazin-6-yl)amino)ethyl)phenyl)-4-(morpholinomethyl)benzamide] | 300 to 1000 | 300 to 1000 |
| Cc1cncc(C(=O)Nc2cccc([C@H](C)Nc3cnc4cnn(CC5CC5)c4n3)c2)c1 [Compound 181, (S)-N-(3-(1-((1-(cyclopropylmethyl)-1H-pyrazolo[3,4-b]pyrazin-6-yl)amino)ethyl)phenyl)-5-methylnicotinamide] | < 300 | < 300 |
| CCn1cc2ncc(N[C@@H](C)c3cc(NC(=O)Cc4ccc(F)cn4)ccc3F)nc2n1 [Compound 649, (S)-N-(3-(1-((2-ethyl-2H-pyrazolo[3,4-b]pyrazin-6-yl)amino)ethyl)-4-fluorophenyl)-2-(5-fluoropyridin-2-yl)acetamide] | < 300 | 300 to 1000 |
| Cc1n[nH]c2ncc(N[C@@H](C)c3cccc(NC(=O)c4cncc(C(F)F)c4)c3)nc12 [Compound 532, (S)-5-(difluoromethyl)-N-(3-(1-((3-methyl-1H-pyrazolo[3,4-b]pyrazin-5-yl)amino)ethyl)phenyl)nicotinamide] | < 300 | < 300 |
| CCn1cc2ncc(N[C@@H](C)c3cccc(NC(=O)c4cnc(C(F)(F)F)s4)c3)nc2n1 [Compound 295, (S)-N-(3-(1-((2-ethyl-2H-pyrazolo[3,4-b]pyrazin-6-yl)amino)ethyl)phenyl)-2-(trifluoromethyl)thiazole-5-carboxamide] | < 300 | < 300 |
| CCn1cc2ncc(N[C@@H](C)c3cc(NC(=O)c4cc(C)c(CN5CC[C@@H](O)C5)c(F)c4)ccc3C)nc2n1 [Compound 527, N-(3-((S)-1-((2-ethyl-2H-pvrazolo[3,4-b]pyrazin-6-yl)amino)ethyl)-4-methylphenyl)-3-fluoro-4-(((R)-3-hydroxypyrrolidin-1-yl)methyl)-5-methylbenzamide] | < 300 | < 300 |
